Test results taken from the NIST ThermoML archive (doi:10.1021/je9003959).

Assay: xn = mol fraction of the nth substance listed
Conditions: 101 kPa, Liquid; for viscosity: Capillary tube (Ostwald / Ubbelohde) method; for speed of sound: Cylindrical cavity resonance method

CCN1CCCC1=O [1-ethyl-2-pyrrolidinone] + O
Conditions | mass density [kg/m3] | speed of sound [m/s] | viscosity [mPa·s]
293 K, x1 = 0.022 | 1003.49 | 1574.8 | 1.593
293 K, x1 = 0.05 | 1010.45 | 1651.9 | 2.368
293 K, x1 = 0.1 | 1020.31 | 1711.9 | 4.149
293 K, x1 = 0.2 | 1026.26 | 1712.2 | 6.159
293 K, x1 = 0.3 | 1023.9 | 1677.6 | 6.189
293 K, x1 = 0.4 | 1022.18 | 1640.4 | 5.349
293 K, x1 = 0.5 | 1019.16 | 1610.7 | 4.506
293 K, x1 = 0.6 | 1014.04 | 1583.1 | 3.639
293 K, x1 = 0.7 | 1010.43 | 1562.1 | 3.13
293 K, x1 = 0.8 | 1006.66 | 1541.7 | 2.671
293 K, x1 = 0.9 | 1003.19 | 1526.1 | 2.458
293 K, x1 = 1 | 1000.55 | 1511.6 | 2.133
298 K, x1 = 0.022 | 1001.76 | 1580 | 1.433
298 K, x1 = 0.05 | 1007.34 | 1648.9 | 2.047
298 K, x1 = 0.1 | 1016.76 | 1699.4 | 3.418
298 K, x1 = 0.2 | 1021.82 | 1694.2 | 4.849
298 K, x1 = 0.3 | 1019.33 | 1658.6 | 5.029
298 K, x1 = 0.4 | 1016.58 | 1621.2 | 4.386
298 K, x1 = 0.5 | 1014.6 | 1591.5 | 3.856
298 K, x1 = 0.6 | 1009.45 | 1564 | 3.244
298 K, x1 = 0.7 | 1005.98 | 1542.9 | 2.836
298 K, x1 = 0.8 | 1002.26 | 1522.6 | 2.43
298 K, x1 = 0.9 | 998.84 | 1507 | 2.21
298 K, x1 = 1 | 996.24 | 1492.5 | 2.022
303 K, x1 = 0.022 | 999.83 | 1583.9 | 1.254
303 K, x1 = 0.05 | 1002.82 | 1645.1 | 1.767
303 K, x1 = 0.1 | 1013.12 | 1686.7 | 2.842
303 K, x1 = 0.2 | 1017.34 | 1675.8 | 4.088
303 K, x1 = 0.3 | 1014.71 | 1639.3 | 4.164
303 K, x1 = 0.4 | 1012.16 | 1601.7 | 3.621
303 K, x1 = 0.5 | 1010 | 1572.1 | 3.28
303 K, x1 = 0.6 | 1004.1 | 1544.6 | 2.86
303 K, x1 = 0.7 | 1001.5 | 1523.6 | 2.527
303 K, x1 = 0.8 | 997.83 | 1503.4 | 2.218
303 K, x1 = 0.9 | 994.48 | 1487.9 | 2.011
303 K, x1 = 1 | 991.93 | 1473.3 | 1.832
313 K, x1 = 0.022 | 995.35 | 1588.3 | 0.9966
313 K, x1 = 0.05 | 997.46 | 1634.8 | 1.327
313 K, x1 = 0.1 | 1005.63 | 1660.4 | 2.051
313 K, x1 = 0.2 | 1008.28 | 1639.1 | 2.879
313 K, x1 = 0.3 | 1005.38 | 1600.7 | 2.966
313 K, x1 = 0.4 | 1001.82 | 1562.8 | 2.6
313 K, x1 = 0.5 | 1000.71 | 1533.3 | 2.509
313 K, x1 = 0.6 | 995 | 1506 | 2.262
313 K, x1 = 0.7 | 992.48 | 1485.3 | 2.04
313 K, x1 = 0.8 | 988.94 | 1465.2 | 1.777
313 K, x1 = 0.9 | 985.71 | 1449.9 | 1.702
313 K, x1 = 1 | 983.26 | 1435.3 | 1.621
323 K, x1 = 0.022 | 989.91 | 1588.3 | 0.8044
323 K, x1 = 0.05 | 991.01 | 1622.3 | 1.073
323 K, x1 = 0.1 | 997.84 | 1633.2 | 1.358
323 K, x1 = 0.2 | 999.06 | 1602.1 | 2.164
323 K, x1 = 0.3 | 995.92 | 1561.9 | 2.234
323 K, x1 = 0.4 | 992.73 | 1523.7 | 2.014
323 K, x1 = 0.5 | 991.3 | 1494.4 | 1.986
323 K, x1 = 0.6 | 985.81 | 1467.5 | 1.856
323 K, x1 = 0.7 | 983.37 | 1447.1 | 1.67
323 K, x1 = 0.8 | 979.96 | 1427.3 | 1.54
323 K, x1 = 0.9 | 976.89 | 1412.2 | 1.435
323 K, x1 = 1 | 974.56 | 1398 | 1.358
